Reference: PubChem BioAssay (NCI)
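A five-concentration, 48-hour dose response in 96-well plates underlies each endpoint, interpolated linearly between surrounding concentrations. The concentration for 50% growth inhibition is given as GI50. TGI marks complete inhibition of growth.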

Assays:
Assay in all cases: growth of human tumour cells (NCI), 48 h
CCRF-CEM leukemia = test system: CCRF-CEM leukemia
RXF 393 renal = test system: RXF 393 renal
DLD-1 colon = test system: DLD-1 colon
NCI-H522 lung = test system: NCI-H522 lung
786-0 renal = test system: 786-0 renal
KM20L2 colon = test system: KM20L2 colon
SF-295 CNS = test system: SF-295 CNS
SNB-75 CNS = test system: SNB-75 CNS
T-47D breast = test system: T-47D breast
SK-MEL-2 melanoma = test system: SK-MEL-2 melanoma

Structure (SMILES) | TGI (CCRF-CEM leukemia) [µM] | TGI (RXF 393 renal) [µM] | TGI (DLD-1 colon) [µM] | TGI (NCI-H522 lung) [µM] | TGI (786-0 renal) [µM] | TGI (KM20L2 colon) [µM] | GI50 (SF-295 CNS) [µM] | TGI (SF-295 CNS) [µM] | GI50 (CCRF-CEM leukemia) [µM] | GI50 (SNB-75 CNS) [µM] | TGI (SNB-75 CNS) [µM] | GI50 (RXF 393 renal) [µM] | GI50 (T-47D breast) [µM] | TGI (T-47D breast) [µM] | GI50 (NCI-H522 lung) [µM] | GI50 (786-0 renal) [µM] | GI50 (SK-MEL-2 melanoma) [µM] | TGI (SK-MEL-2 melanoma) [µM]
CC(=O)c1ccc(NC(=O)C(=O)C(C(=O)c2ccc(Cl)c(Cl)c2)C2OC(=O)c3ccccc32)cc1 (stereo not given) | > 100 | 17.4 | 55.8 | 22.1 | 33.8 | > 100 |  |  |  |  |  |  |  |  |  |  |  | 
NC1=CC(=O)c2nc3ccccc3c3ccnc1c23 | > 100 | 17.2 |  | 17.3 | > 66.5 |  | 0.19 | > 39.5 | 11.6 | 0.552 | 23.5 | 4.78 | 7.85 | > 67.4 | 2.48 | 7.49 | 9.45 | 32.1
CSC1=Nc2c(c(C)c(C)n2COC(CO)CO)C2=NC(=O)CC(C)N12 (stereo not given) | 49.5 | > 100 |  | > 100 | > 100 |  | > 100 | > 100 | 16.5 | 30.7 | > 100 | > 100 | > 100 | > 100 | > 100 | > 100 | > 100 | > 100
O=C(O)CP(=O)(O)O | > 100 | > 100 |  | > 100 | > 100 |  |  | > 100 |  |  | > 100 |  |  | > 100 |  |  |  | > 100
N#Cc1c(N)nc(NCc2ccccc2)c(C#N)c1-c1ccccc1Cl | 45.5 | > 100 |  | 55 | 36.2 |  | 12.6 | 76.2 | 15.2 | 10.3 | 48.8 | 24.6 | 67.3 | > 100 | 12.6 | 13.4 | 22.9 | 93.5
O=C(NC1CCCCC1)NS(=O)(=O)c1ccc(-n2nc3c(c2-c2ccc(Cl)cc2)Cc2ccccc2-3)cc1 | 4.36 | 75.2 |  | 52.5 | > 100 |  | 11.3 | 28.9 | 1.13 | 27.6 | > 100 | 20 | 49.8 | > 100 | 18.3 | 5.07 | 19.4 | 44.2
CC1(C)N=C(N)N=C(N)N1c1cccc(CCCCOc2ccccc2)c1 | 32.7 | > 100 |  | 13.3 | > 100 |  | 0.34 | > 68.4 | 0.0414 | 0.195 | 22.9 | 0.147 | 1.62 | 30.1 | 0.0614 | 0.142 | 1.61 | 19.9
C=CC[C@@H]1/C=C(\C)C[C@H](C)C[C@H](OC)[C@H]2O[C@@](O)(C(=O)C(=O)N3CCCC[C@H]3C(=O)O[C@H](/C(C)=C/C3CC[C@@H](O)[C@H](OC)C3)[C@H](C)[C@@H](O)CC1=O)[C@H](C)C[C@@H]2OC (stereo not given in full) | 39.7 | 27.3 |  | 27 | 35.1 |  | 14.6 | 31.9 | 14.6 | 12.3 | 25.1 | 13.6 | 16.5 | 35.6 | 12.7 | 17.3 | 17.4 | 33.4
CC(=O)OC1Oc2cc(C)c(C)cc2-c2oc(=O)c(-c3ccc(F)cc3)cc21 (stereo not given) | 21.4 | 8.71 |  | 19 | > 100 |  | 3.92 | > 100 | 3.61 | 4.34 | 80.8 | 2.95 | 2.43 | 17.1 | 4.53 | 9.55 | 6.05 | 41.3
N=c1n(Cc2ccccc2)c(N)cc(=O)n1Cc1ccccc1 | 8.65 | 5.71 |  | 2.42 | 9.76 |  | 2.68 | 19.1 | 1.63 | 3.08 | 16.1 | 1.87 | 3.01 | 12.4 | 0.503 | 2.97 | 2.79 | 7.18
S=C(c1ccc2c(c1)OCO2)N1CCN(c2cccc(Cl)c2)CC1 | > 21.9 | 40.8 |  |  | > 59.6 |  | 0.387 | > 40.9 | 1.01 | 0.572 | > 27.4 | 10.9 | 7.31 | > 100 | 0.382 | 1.22 | > 100 | > 100
CCOC(=O)c1c(Cl)c2c(n1Cc1cccc(OC)c1)-c1oncc1CC2 | 84 | 40.4 |  | 6.73 | 52.7 |  | 0.658 | 15.9 | 2.07 | 1.61 | 5.35 | 2.87 | 4.41 | > 100 | 0.351 | 4.5 | 5.61 | 67.3
Cc1[nH]nc2ccc3nc(-c4ccc5[nH]ncc5c4)c4c(c3c12)CCCC4 | > 100 |  |  | 6.01 | 12.9 |  | 2.74 | 10.5 | 2.13 | 1.52 | 7.28 | 0.23 | 1.14 | 8.22 | 0.446 | 1.19 | 0.476 | 2.48
Cc1c(-c2nnc(-c3ccc(F)cc3)o2)nnn1-c1ccnc2c(C(F)(F)F)cccc12 | > 100 | 70.7 |  | > 100 | > 100 |  | 29.6 | > 100 | > 100 | 19.5 | 61.2 | 21.6 | 20 | > 100 | 84.7 | 40.6 | > 100 | > 100
O=C1/C(=C/c2ccccc2F)CN(C(=O)C(Cl)Cl)C/C1=C\c1ccccc1F | > 100 | 1.75 |  | 1.06 | 2 |  | 0.391 | 1.52 | 0.106 | 0.572 | 1.95 | 0.584 | 0.71 | 3.97 | 0.281 | 0.666 | 1.6 | 3.62
